From patent US6562758B1 (priority 1999, dated 2003)
Where “and” joins values, the source holds several entries; their conditions need not be identical. Identical values can stand only once. Like-named read-outs stand apart in the source and are kept apart here.

Tests used:
Details in all cases: in vivo
cotton plants [1] = system: cotton plants; design: species or system cotton (Gossypium hirsutum)
cotton plants [2] = system: cotton plants; design: species or system cotton (Gossypium hirsutum); remark: listed apart in the source
red kidney bean plants [3] = system: red kidney bean plants
cotton plants [4] = system: cotton plants; design: species or system cotton (Gossypium hirsutum); remark: listed apart in the source
kidney beans [5] = system: kidney beans; design: species or system kidney bean
cotton plants [6] = system: cotton plants; design: species or system cotton (Gossypium hirsutum); remark: listed apart in the source
red kidney bean plants [7] = system: red kidney bean plants; remark: listed apart in the source
kidney beans [8] = system: kidney beans; design: species or system kidney bean; remark: listed apart in the source
potato plants = system: potato plants

Row | Compound | % Defoliation (cotton plants [1]) | % Regrowth Avg. (cotton plants [2]) | % Regrowth (red kidney bean plants [3]) | % Regrowth 20 DAT (cotton plants [4]) | % Defoliation 15 DAT (kidney beans [5]) | % Defoliation (cotton plants [6]) | % Defoliation (red kidney bean plants [7]) | regrowth (kidney beans [8]) | Percent Defoliation (potato plants) | % Regrowth at 21 DAT (kidney beans [8])
1 | O=P(O)(O)CCCl [ETP, (2-chloroethyl)phosphonic acid] | 31% and 49% | 51% | 10% | 36.3% | 28% | 58% and 78% | 18% and 20% |  |  | 
2 | C/C(=N\NC(=O)Nc1cc(F)cc(F)c1)c1ncccc1C(=O)O [DFP, diflufenzopyr] |  | 7% and 6% |  |  | 59% | 23% and 40% and 39% and 21% |  | reduced regrowth as compared to the untreated check |  | 
3 | C[n+]1ccc(-c2cc[n+](C)cc2)cc1 [Paraquat, paraquat] |  |  |  |  |  |  |  |  | 76% and 44% | 
4 | CCOC(=O)/C(Cl)=C/c1cc(N2C(=O)C3=C(CCCC3)C2=O)ccc1Cl [BAS 123W, cinidon-ethyl] |  |  |  |  |  |  |  | tended to promote regrowth |  | 124% and 110% and 73%
